Experimental data reported in paper PMC7817263, “Analysis of the Anti-Inflammatory and Analgesic Mechanism of Shiyifang Vinum Based on Network Pharmacology” (Evidence-based Complementary and Alternative Medicine : eCAM, 2021).
pIC50: −log10 of the molar value.

Molecular target: T1, COX-2 (Homo sapiens, UniProt P35354)
T1 construct: purchased Beyotime Biotechnology (Shanghai, China)
T1 sequence (P35354 18-604): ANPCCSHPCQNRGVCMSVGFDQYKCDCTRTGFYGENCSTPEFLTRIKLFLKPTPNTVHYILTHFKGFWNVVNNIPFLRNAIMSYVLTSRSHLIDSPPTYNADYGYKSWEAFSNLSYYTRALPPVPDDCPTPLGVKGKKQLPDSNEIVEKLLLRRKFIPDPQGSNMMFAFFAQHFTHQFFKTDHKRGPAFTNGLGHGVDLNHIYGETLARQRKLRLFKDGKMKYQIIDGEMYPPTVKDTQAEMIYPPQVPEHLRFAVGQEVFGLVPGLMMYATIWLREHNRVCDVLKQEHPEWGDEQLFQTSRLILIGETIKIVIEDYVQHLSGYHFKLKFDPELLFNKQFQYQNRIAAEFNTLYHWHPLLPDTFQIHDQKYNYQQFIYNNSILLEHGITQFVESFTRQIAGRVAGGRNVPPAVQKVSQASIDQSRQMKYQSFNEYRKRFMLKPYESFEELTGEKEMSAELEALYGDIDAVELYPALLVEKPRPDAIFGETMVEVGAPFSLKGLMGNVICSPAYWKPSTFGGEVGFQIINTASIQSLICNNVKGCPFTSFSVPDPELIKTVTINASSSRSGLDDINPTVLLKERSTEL
Assay: COX-2 inhibitor screening kit, in vitro enzyme activity test (fluorescence)
Type: biochemical
Conditions: inhibition of COX-2 enzyme activity, probit regression
Method: The COX-2 inhibitory activities of four monomer compounds and Shiyifang Vinum were detected with the COX-2 inhibitor screening kit. The blank control, 100% enzyme activity control, positive inhibition control, and sample wells were prepared, with three repeat wells in each group.

pIC50	Structure (SMILES)
5.40	O=c1c(O)c(-c2ccc(O)c(O)c2)oc2cc(O)cc(O)c12 [Quercetin, quercetin]
4.97	O=c1cc(-c2ccc(O)c(O)c2)oc2cc(O)cc(O)c12 [Luteolin, luteolin]
4.51	O=c1c(O)c(-c2ccc(O)cc2)oc2cc(O)cc(O)c12 [Kaempferol, kaempferol]
